This note sets out measurements from PubChem BioAssay AID1996.

In brackets after ≈: the same amount, converted by molar mass.

For this data set the following is noted: buffer; pH 7.4; 200.0 µM.
`CCCC(=O)Nc1sc(C)c(C)c1C#N` gave a kinetic solubility of 13.6 µg/mL (≈ 61.2 µM).

`COc1ccc(/C=C/C(=O)NCCCN2CCCCCC2)cc1`: the kinetic solubility is > 47.5 µg/mL.

Turning to `N#Cc1ccccc1OCC(=O)NNC(=O)c1ccncc1`, the solubility (kinetic) is > 44.4 µg/mL.

Take `CC(C)COC(=O)n1c(SCC(N)=O)nc2ccccc21`: the solubility (kinetic) came out at 16.3 µg/mL (≈ 53 µM).

`Cc1ccccc1OCCN1CCCC1` came in with a kinetic solubility of 19.5 µg/mL (≈ 95 µM).

The compound `CCn1c(NC(=O)C(C)C)c(-c2ccccc2)c(=O)c2ccccc21` returned a kinetic solubility of 30.9 µg/mL (≈ 92.4 µM).

On to `COC(=O)CNC(=O)COC(=O)c1cc(SC)ccc1Cl`, for which the kinetic solubility is > 49.8 µg/mL.

`O=C(COc1ccc(Cl)cc1)N1CCCCCCC1`: the kinetic solubility came to 31.8 µg/mL (≈ 113 µM).

`CCN(CC)C(=O)CSc1nc(C)cc(C)c1C#N` showed a solubility (kinetic) of 15.1 µg/mL (≈ 54.4 µM).

`COc1ccc(CN2CCC(C)CC2)cc1OCc1ccccc1` came in with a kinetic solubility of 45.3 µg/mL (≈ 139 µM).

With `O=C(COC(=O)/C=C/c1ccccc1[N+](=O)[O-])NC1CC1`, the kinetic solubility is > 43.5 µg/mL.

Take `Cc1cccc(NC(=O)c2ccccc2C(=O)Nc2cccc(C)c2)c1`: the solubility (kinetic) turned out to be 3 µg/mL (≈ 8.71 µM).

The compound `Cn1c(N)c(C(=O)COC(=O)c2cccc(S(=O)(=O)NCc3ccccc3)c2)c(=O)n(C)c1=O` showed a solubility (kinetic) of 17.6 µg/mL (≈ 36.2 µM).

Take `Nc1nc(Nc2ccccc2F)nc(N2CCOCC2)c1[N+](=O)[O-]`: the solubility (kinetic) was determined as 8.2 µg/mL (≈ 24.5 µM).

With `Cc1ccc(S(=O)(=O)N2CCN(C)CC2)cc1`, the kinetic solubility is > 38.2 µg/mL.

`CC(=O)NC(=O)COC(=O)c1ccc2ncsc2c1` had a solubility (kinetic) of 27.5 µg/mL (≈ 98.8 µM).

Take `COc1cc2c(cc1OC)CN(c1ccc(F)cc1[N+](=O)[O-])CC2`: the solubility (kinetic) was found to be 17.8 µg/mL (≈ 53.6 µM).

Turning to `Cc1onc(-c2c(Cl)cccc2Cl)c1C(=O)c1ccccc1`, the kinetic solubility came out at 5.1 µg/mL (≈ 15.4 µM).

`O=C(Nc1ccccc1)OCc1cnc(Cl)s1`: the kinetic solubility amounted to 36.7 µg/mL (≈ 137 µM).

Consider `Cc1ccc(NC(=O)C2C3CCCCC32)cc1[N+](=O)[O-]` (stereo not given), for which the kinetic solubility is 0.5 µg/mL (≈ 1.82 µM).

As for `O=C(Nc1ccc(Br)cc1)c1cnc[nH]1`, the kinetic solubility was > 39.9 µg/mL.

For the compound `COc1cc2nc(CCc3ccccc3)oc(=O)c2cc1OC`, the solubility (kinetic) was > 46.7 µg/mL.

`COc1ccc(OC)c2sc(N(CCN(C)C)C(=O)c3ccc4ccccc4c3)nc12.Cl` yielded a solubility (kinetic) of 8.6 µg/mL.

For `COc1ccc(S(=O)(=O)NCCc2ccccc2)c2cccnc12`, the kinetic solubility is > 51.4 µg/mL.

With `NC(=O)N1c2ccccc2C=Cc2ccccc21`, the kinetic solubility is > 35.4 µg/mL.

As to `NC(=O)CSc1nccn1Cc1ccc(Cl)cc1`, the kinetic solubility is > 42.3 µg/mL.

On to `Cc1nc(Cl)c(C#N)c2c1CCCC2`, for which the kinetic solubility was found to be 17.5 µg/mL (≈ 84.7 µM).

Take `CCNC(=S)Nc1ccc(-c2nc3ccccc3[nH]2)cc1`: the solubility (kinetic) was > 44.5 µg/mL.

`Cc1cc(N2Cc3ccccc3C2)ccc1C=O` came in with a solubility (kinetic) of 7.1 µg/mL (≈ 29.9 µM).

Turning to `COc1ccc(NC(=O)c2ccco2)cn1`, the kinetic solubility is > 32.7 µg/mL.

With `CS(=O)(=O)N1CCc2cc(C(=O)Nc3ccccc3)ccc21`, the kinetic solubility was 2.3 µg/mL (≈ 7.27 µM).

For the compound `O=C(O)CC(CC(=O)Nc1ccc(C(=O)O)cc1)c1ccccc1` (stereo not given), the solubility (kinetic) is > 49.1 µg/mL.

For the compound `C#Cc1cccc(NC(=O)C2CCN(C(C)=O)CC2)c1`, the solubility (kinetic) is > 40.5 µg/mL.

Turning to `CCOC(=O)Cn1c(=O)oc2ccc(C)cc21`, the kinetic solubility is > 35.3 µg/mL.

`CCOC(=O)c1[nH]c(C)c(C(=O)OCc2ccc(C)cc2)c1C` had a kinetic solubility of 1.1 µg/mL (≈ 3.49 µM).

Compound `COC(=O)/C=C1\SC(=NC(=O)c2ccc(C)cc2)NC1=O` came in with a solubility (kinetic) of 44.5 µg/mL (≈ 146 µM).

`O=S(=O)(NCc1csc(-c2cccs2)n1)c1ccccc1` returned a solubility (kinetic) of 40.6 µg/mL (≈ 121 µM).

Compound `CC(C)COC(=O)c1ccc(N2C(=O)c3ccccc3C2=O)cc1` registered a solubility (kinetic) of 2.1 µg/mL (≈ 6.49 µM).

As to `COc1ccc(NS(=O)(=O)c2cc(N)ccc2N2CCCC2)cc1`, the kinetic solubility came to 47.6 µg/mL (≈ 137 µM).

For the compound `CCCn1c(N)cc(=O)n(CCC)c1=O`, the solubility (kinetic) was > 31.7 µg/mL.

`COc1ccc(NC(=O)Nc2cnccn2)c(OC)c1` gave a solubility (kinetic) of 3.4 µg/mL (≈ 12.4 µM).

Regarding `Oc1ccc(Nc2nc(-c3ccccc3O)nc3ccccc23)cc1`, the kinetic solubility was 2.1 µg/mL (≈ 6.38 µM).

Turning to `CCCCCOC(=O)NC1CCS(=O)(=O)C1` (stereo not given), the kinetic solubility is > 37.4 µg/mL.

The compound `O=S(=O)(c1ccc2ccccc2c1)N1CCN(c2ccc(O)cc2)CC1` displayed a solubility (kinetic) of 4.6 µg/mL (≈ 12.5 µM).

Regarding `N/C(=N\OC(=O)c1ccc(Cl)cc1[N+](=O)[O-])c1cccnc1`, the solubility (kinetic) came out at 12.5 µg/mL (≈ 39 µM).

`Cc1onc(-c2ccccc2)c1NC(=O)Nc1ccc(OC(F)F)cc1` had a solubility (kinetic) of 7 µg/mL (≈ 19.5 µM).

Turning to `CN1C(=S)SC(/[N+]([O-])=C/c2ccc(Cl)cc2)C1(C)C` (stereo not given), the kinetic solubility was found to be 15.7 µg/mL (≈ 49.9 µM).

As for `O=C1CSC(=S)N1c1ccc(Cl)c(Cl)c1`, the solubility (kinetic) is < 0.6 µg/mL.

Compound `COc1cc2ccccc2cc1C(=O)NC1CCC(C)CC1` (stereo not given) showed a kinetic solubility of 5 µg/mL (≈ 16.8 µM).

For `COc1ccccc1CC(=O)NC(=O)c1ccccc1O`, the kinetic solubility worked out at 41.5 µg/mL (≈ 145 µM).

For `C/C(CC(C)C)=N\Oc1nc(C)cc(C)n1`, the kinetic solubility is > 33.2 µg/mL.

Regarding `O=C(O)/C=C/c1ccccc1[N+](=O)[O-]`, the solubility (kinetic) is > 29 µg/mL.

As for `CC(NC(=O)Nc1ccccc1Cl)c1ccc2c(c1)OCO2` (stereo not given), the solubility (kinetic) was < 0.3 µg/mL.

For `Cc1nc(C)c(Oc2cccc(C(F)(F)F)c2)c(=O)[nH]1`, the solubility (kinetic) stood at 38.2 µg/mL (≈ 134 µM).

As to `O=c1cc([O-])n(Cc2ccc(F)cc2)c(=O)[nH]1.[NH4+]`, the kinetic solubility was > 38 µg/mL.

Take `CN1C(=O)C2(OCC(CO)([N+](=O)[O-])CO2)c2ccccc21` (stereo not given): the kinetic solubility was > 44.1 µg/mL.

`CC(=O)NC(CC(=O)O)C(=O)O` (stereo not given): the kinetic solubility was > 26.3 µg/mL.

For `O=c1[nH]c(=S)n(C2CC2)c(O)c1C=Nc1ccc2c(c1)OCO2`, the solubility (kinetic) came to 1.3 µg/mL (≈ 3.92 µM).

`O=c1oc2ccccc2cc1-c1csc(Nc2ccc(O)cc2)n1` displayed a solubility (kinetic) of 1.7 µg/mL (≈ 5.05 µM).

`Cc1ccc(C)c(NC(=O)C2CCCN(c3cnccn3)C2)c1` (stereo not given) yielded a kinetic solubility of 1.7 µg/mL (≈ 5.48 µM).

As for `COCCNC(=O)/C(C#N)=C/c1ccc(O)c([N+](=O)[O-])c1`, the solubility (kinetic) is > 43.7 µg/mL.

Consider `COc1cc(CO)ccc1OCC(=O)N1CCc2ccccc21`, for which the kinetic solubility was > 47 µg/mL.

Compound `CCOC(=O)C1CCN(CC(=O)c2ccc(O)c(C)c2O)CC1` showed a kinetic solubility of 46.3 µg/mL (≈ 144 µM).

Regarding `COC(=O)c1cn(C(=O)c2cc(Cl)ccc2Cl)c2ccccc12`, the kinetic solubility was < 0.7 µg/mL.

As to `CCOc1ccc(NC(=S)N2c3ccccc3CC2C)cc1` (stereo not given), the solubility (kinetic) stood at 4.4 µg/mL (≈ 14.1 µM).

Take `CCOC(=O)Cc1cnc(N)s1`: the kinetic solubility turned out to be 27.6 µg/mL (≈ 148 µM).

For `CS(=O)(=O)N1CCc2cc(C(=O)Nc3cccc([N+](=O)[O-])c3)ccc21`, the kinetic solubility is < 0.3 µg/mL.

The compound `CCOc1ccc(S(=O)(=O)N(C)c2ccc(OCC(=O)NCC3CCCCC3)cc2)cc1` showed a solubility (kinetic) of 3.1 µg/mL (≈ 6.73 µM).

In turn, `CCCCCCn1cc(C(=O)OCC)c(=O)c2cc(F)c(F)cc21` displayed a kinetic solubility of 43.6 µg/mL (≈ 129 µM).

As to `CSCCC(NC(=O)C1CCCCC1)c1nc2ccccc2[nH]1` (stereo not given), the solubility (kinetic) is 23 µg/mL (≈ 69.4 µM).

`O=C(Nc1nc2cc3c(cc2s1)OCCO3)c1ccco1` showed a solubility (kinetic) of 4.8 µg/mL (≈ 15.9 µM).

`Cc1ccsc1C(=O)NCc1ccc(Cl)cc1`: the solubility (kinetic) is 1.8 µg/mL (≈ 6.77 µM).

`CCC(=O)Nc1ccc2c(c1)nc(CCN1CCCCC1)n2C` yielded a solubility (kinetic) of 43.2 µg/mL (≈ 137 µM).

On to `CCc1noc(C)c1C(=O)Nc1nc2c(C)cc(C)cc2s1`, for which the solubility (kinetic) was found to be 3.2 µg/mL (≈ 10.1 µM).

In turn, `Oc1ccc(-c2ccccc2)cc1CN1CCCCCC1` came in with a kinetic solubility of 17.4 µg/mL (≈ 61.8 µM).
